{"source": "patent US8389002B2", "about": "“Anti-cancer medicine both for diagnosing and treating cancer” (Youl Chon Chemical Co., Ltd., priority 2007, dated 2013)", "key": {"[1]": {"assay": "Pharmacokinetics: change in blood plasma concentration as time goes by", "conditions": "male, Sprague-Dawley, rat, iv, 10 mg/kg", "protocol": "The Sprague Dawley (SD) adult male rat was slightly anesthetized with ketamine and acepromazine. Then, the femoral vein was subject to cannulation with physiological salt solution and the artery was subject to cannulation with polyethylene tubing (PE-50, intramedic, Clay-Adams) in which the physiological salt solution of 40 I.U./mL was filled, for which the heparin treatment was performed. […] At 0 (blank), 1, 5, 15, 30, 60 and 120 minutes after the administration, the blood 0.3 mL was respectively sampled, which was then centrifugally separated (13,000 rpm, 3 minutes) to separate about 0.1 mL of the blood plasma. Then, it was deproteinated and then analyzed with HPLC.\nIt was used the HPLC method using a reverse phase C-18 column (Shim-pack CLS-ODS, 4.6 mm I.D. 250 mm L., […] particle diameter). To the sampled blood plasma 0.1 mL were applied an internal standard material solution 50 μL ([…] daunomycin), the methanol 100 μL and the ethyl acetate 1.0 mL. The mixture solution was subject to vortexing for 3 minutes and centrifugally separated for 3 minutes (3,000 rpm) to take the organic layer only (1.0 mL), which was then dried with speed-vac. The remnants were re-composed into a moveable phase of 300 μL and 100 μL of which was then directly injected to a HPLC system. As the moveable phase of the HPLC system, a solution of the deionized water (pH=2.5 by phosphoric acid):acetonitrile=6:4 was used and a flow rate was 1 mL/min. As a HPLC detection method, a fluorescent analysis method was used at 470 nm excitation wavelength and 565 nm emission wavelength. The doxorubicin standard solution for making a calibration curve was made by dissolving it in the methanol so that it became 0.05, 0.1, 0.5, 1 and 3 μg/mL. When preparing a biological sample calibration curve, the standard solution 100 μL of doxorubicin 0.05, 0.1, 0.5, 1 and 3 μg/mL was put instead of methanol 100 μL for pre-treatment. Then, a calibration curve was made from which the doxorubicin in the blood plasma was obtained."}, "hepatoma": {"system": "hepatoma", "assay": "Tumor growth after administration in hepatoma model rat (MRI)", "type": "in vivo", "conditions": "hepatoma SD-rat, 2 mg/kg tail vein, three times every 5 days, one week after last injection", "description": "In order to make a hepatoma model, the water in which diethyl nitrosamine was diluted in a ratio of 1:10,000 was supplied to 8 weeks old SD-rat every day for 12 weeks until the tumor was generated. […] It was checked with MRI whether the tumor was after 10 weeks breeding. […] Again, the MRI photographing was made. The phleboclysis was performed three times every 5 days. Then, at one week after the last phleboclysis, the sizes of the tumors were compared through the MRI photographing."}}, "data": [{"molecule": "COc1cccc2c1C(=O)c1c(O)c3c(c(O)c1C2=O)C[C@@](O)(C(=O)CO)C[C@@H]3O[C@H]1C[C@H](N)[C@H](O)[C@H](C)O1", "note": "[FD, doxorubicin]", "values": [{"measurement": "clearance", "setting": "[1]; in vivo", "value": "37.9 ± 15.8", "unit": "mL/min/kg"}, {"measurement": "half-life", "setting": "[1]; in vivo", "value": "51.6 ± 34", "unit": "min"}, {"measurement": "AUC", "setting": "[1]", "value": 4850, "unit": "ng·h/mL"}, {"measurement": "size of the tumor in MRI photograph", "setting": "hepatoma", "value": "became larger"}]}]}
